In assay [1] the target is Superoxide dismutase 1/2 (Homo sapiens) (UniProt P00441+P04179). The assay can be described thus: Inhibition of SOD1/SOD2 in human DLD1 cells at 100 uM using xanthine as substrate pretreated for 24 hrs followed by substrate addition measured after 5 mins by NBT dye based spectrophotometric method. The format is cell-based.
Assay [2] concerns DLD-1. The assay can be described thus: Antioxidant activity in human DLD1 cells assessed as ratio of reduced glutathione to oxidized glutathione by ortho-phthalaldehyde probe based fluorescence spectrometric method (reference value: 3.19 +/- 0.2). In kind it is functional.
Assay [3] deals with DLD-1. The experiment in a line: Antiproliferative activity against human DLD1 cells at 100 uM after 4 to 48 hrs by Alamar blue assay. In kind it is functional, cell-based. (In general: The colour change of resazurin is a common sign of viable cells or microbes.)
A short description of assay [4]: Antioxidant activity of the compound assessed as DPPH radical scavenging activity after 5 mins by spectrophotometric method. In kind it is functional. Details: unit not given here. In general terms: DPPH is a stable violet radical that fades when it is reduced.
A short description of assay [5]: Antioxidant activity assessed as ABTS radical scavenging activity after 5 mins by spectrophotometric method. In kind it is functional. On the set-up: unit not given here.
The subject of assay [6] is DLD-1. The assay can be described thus: Antioxidant activity in human DLD1 cells assessed as glutathione reactivity by measuring GSSG level per mg protein by ortho-phthalaldehyde probe based fluorescence spectrometric method (reference value: 0.69 nmol). In kind it is functional.
The target in assay [7] is T1, Extracellular superoxide dismutase [Cu-Zn] (Homo sapiens) (UniProt P08294).
T1 sequence (whole entry): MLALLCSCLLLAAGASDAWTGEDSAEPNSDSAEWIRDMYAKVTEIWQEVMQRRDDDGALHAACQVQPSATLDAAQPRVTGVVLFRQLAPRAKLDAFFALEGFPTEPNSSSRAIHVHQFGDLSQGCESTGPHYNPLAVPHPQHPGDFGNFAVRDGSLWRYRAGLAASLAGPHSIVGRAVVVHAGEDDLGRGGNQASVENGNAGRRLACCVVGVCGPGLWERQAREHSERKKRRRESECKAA
The assay can be described thus: Inhibition of SOD3 in human DLD1 cells at 100 uM using xanthine as substrate pretreated for 24 hrs followed by substrate addition after 5 mins by NBT dye based spectrophotometric method. The format is cell-based.

In assay [8] the target is T2, Superoxide dismutase [Mn], mitochondrial (Homo sapiens) (UniProt P04179).
T2 sequence (whole entry): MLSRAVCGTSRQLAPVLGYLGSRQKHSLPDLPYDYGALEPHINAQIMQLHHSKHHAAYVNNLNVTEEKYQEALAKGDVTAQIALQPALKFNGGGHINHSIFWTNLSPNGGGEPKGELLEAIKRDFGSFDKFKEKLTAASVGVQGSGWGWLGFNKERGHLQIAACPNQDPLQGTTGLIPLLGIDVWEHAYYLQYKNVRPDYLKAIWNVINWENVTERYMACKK
The assay can be described thus: Inhibition of mitochondrial SOD2 in human DLD1 cells at 100 uM using xanthine as substrate pretreated for 24 hrs followed by substrate addition after 5 mins by NBT dye based spectrophotometric method. In kind it is cell-based.

Assay [9] deals with DLD-1. The experiment in a line: Down regulation of MRP1 expression in human DLD1 cells at 100 uM after 24 hrs by fluorescence assay. In kind it is functional, cell-based.
Assay [10] is described as follows: Antioxidant activity of the compound assessed as DPPH radical scavenging activity at 1 mM after 5 mins by spectrophotometric method. The format is functional.
The test system of assay [11] is DLD-1. The assay can be described thus: Antioxidant activity in human DLD1 cells assessed as glutathione reactivity by measuring GSH level per mg protein by ortho-phthalaldehyde probe based fluorescence spectrometric method (reference value: 2.19 +/- 0.18 nmol). The format is functional.
Assay [12] in a line: Glutathione reactivity assessed as rate constant for total GSH loss by UV-vis spectrophotometric method.
Assay [13] is described as follows: Antioxidant activity assessed as ABTS radical scavenging activity at 100 uM after 5 mins by spectrophotometric method. The format is functional.
The subject of assay [14] is DLD-1. The experiment in a line: Cytotoxicity against human DLD1 cells by MTT assay. In kind it is functional, cell-based.

The results in this text go back to ChEMBL document CHEMBL4020732, “Synthesis, structural characterization and biological activity of novel Knoevenagel condensates on DLD-1 human colon carcinoma” (Bioorg Med Chem Lett, 2017).

Molecules are shown by their SMILES. Active and inactive are the calls of the source. No cut-off for these calls is given here.

Sequence of Superoxide dismutase 1/2 (Homo sapiens) (P00441 whole entry, looked up, one chain of several): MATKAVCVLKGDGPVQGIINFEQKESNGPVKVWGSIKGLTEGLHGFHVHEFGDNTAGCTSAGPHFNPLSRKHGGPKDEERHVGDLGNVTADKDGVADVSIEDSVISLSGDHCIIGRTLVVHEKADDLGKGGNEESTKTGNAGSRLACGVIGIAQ

On to `COc1cc(/C=C/C(=O)C(=Cc2ccc(OC)c(OC)c2)C(=O)/C=C/c2ccc(O)c(OC)c2)ccc1O`, for which the inhibition entry in assay [1] and in assay [8] was “Active” each time. Moreover, the Ratio in the assay on DLD-1 [2] turned out to be 0.93. Besides, the result (in the assay on DLD-1 [3]; in the assay on DLD-1 [9]; in assay [12]) was Active. Also, the 1/IC50 in assay [4] is 0.014; in assay [5], 0.148. Besides, the IC50 stood at 71 µM in assay [4], 6.76 µM in [5] and 3.07 µM in the assay with DLD-1 [14]. The values for the Activity in the assay on DLD-1 [6] and with DLD-1 [11] were 4.21 nmol and 3.93 nmol, respectively. The inhibition result in [7] was “inactive”. Also, the inhibition was found to be 64.8% in assay [10] and 83.6% in assay [13].

Consider `CCOc1cc(/C=C/C(=O)C(=Cc2ccc(O)cc2)C(=O)/C=C/c2ccc(O)c(OCC)c2)ccc1O`, for which the inhibition result in assay [1], in assay [7] and in assay [8] was “inactive” throughout. Further, the Ratio in the assay with DLD-1 [2] was 1.15. The result (with DLD-1 [3]; with DLD-1 [9]; in [12]) was Active. Further, the figures for the 1/IC50 in assay [4] and in assay [5] were 0.021 and 0.068, respectively. Also, the IC50 worked out at 48 µM in assay [4], 14.8 µM in [5] and 20.3 µM in the assay with DLD-1 [14]. In addition, the Activity in the assay on DLD-1 [6] was determined as 3.13 nmol; in the assay with DLD-1 [11], 3.59 nmol. For the same compound, the inhibition in [10] was found to be 74.4%; in [13], 87.7%.

`CCOc1ccc(C=C(C(=O)/C=C/c2ccc(O)c(OC)c2)C(=O)/C=C/c2ccc(O)c(OC)c2)cc1OCC`: the inhibition result in [1] and in assay [7] was “inactive” throughout. Moreover, the Ratio in the assay with DLD-1 [2] turned out to be 2.28. For the same compound, the result (in the assay with DLD-1 [3]; with DLD-1 [9]; in [12]) was Active. Besides, the figures for the 1/IC50 in assay [4] and in [5] were 0.014 and 0.1, respectively. In addition, the results for the IC50 (in assay [4]; in [5]; in the assay on DLD-1 [14]) were 73 µM, 10 µM and 4.12 µM, respectively. Moreover, the Activity was 1.88 nmol in the assay with DLD-1 [6] and 4.27 nmol with DLD-1 [11]. Further, the inhibition entry in [8] is “Active”. In addition, the values for the inhibition in assay [10] and in [13] were 61.9% and 74.9%, respectively.

With `COc1cc(C=C(C(=O)/C=C/c2ccc(O)c(OC)c2)C(=O)/C=C/c2ccc(O)c(OC)c2)ccc1O`, the inhibition entry in assay [1] and in assay [8] was “Active” throughout. For the same compound, the Ratio with DLD-1 [2] amounted to 1.63. Besides, the result (with DLD-1 [3]; in the assay with DLD-1 [9]; in assay [12]) was Active. Besides, the 1/IC50 is 0.014 in assay [4] and 0.305 in assay [5]. In addition, the results for the IC50 (in [4]; in [5]; with DLD-1 [14]) were 72.4 µM, 3.28 µM and 5.06 µM, respectively. Also, the Activity was found to be 2.8 nmol in the assay on DLD-1 [6] and 4.56 nmol in the assay on DLD-1 [11]. In addition, the inhibition in assay [10] was determined as 59.1%; in [13], 97.9%.

For orientation: inhibition means how much of the control response was suppressed. As a reminder, the IC50 is the point on the concentration scale where inhibition reaches its midpoint.
